From patent US10035806B2, “Derivatized corroles and metallocorroles and their use as imaging and therapeutic agents” (CALIFORNIA INSTITUTE OF TECHNOLOGY, priority 2015, dated 2018)
Marks after values point to notes of the source that are not given here.

Tests used:
solubility in water = type: physicochemical
CAK-1 = test: NCI60 anticancer drug screen; type: cell-based, human; settings: CAK-1 (Renal Cancer), 10 μM, 48 h
Excerpt: (§1) The aminocaproate-substituted corrole Complex 3 was submitted to NCI for cytotoxic screening at a single high dose (10−5M) in a panel of 60 human tumor cell lines (NCI60). Details of the cytotoxicity assessment in the NCI anticancer drug screen have been described previously, in Monks A, et al. (1991) Feasibility of a high-flux anticancer drug screen using a diverse panel of cultured human tumor cell lines. J Natl Cancer Inst 83(11):757-766, this reference being incorporated by reference for these teachings.
(§2) In view of the promising results observed for carboxylated corroles, Complex 3 was selected for expanded cell screening to uncover additional susceptible cancer cell lines. The cytotoxic activity of Complex 3 was tested at a dose of 10^−5 M against 60 human cancer cell lines representing nine distinct tumor types in the anticancer screening program of the National Cancer Institute (NCI). The in vitro parameters for cytotoxicity, growth percent, and lethality were obtained for Complex 3 and reported as a mean graph of the percent growth of treated cells (FIG. 7). Bars in the mean graph depict the deviation of individual tumor cell lines from the overall mean value for all cells tested. Bars that project to the right of the mean represent cell lines that are more sensitive to Complex 3, whereas cell lines less sensitive to the compound display bars that project to the left.
(§3) The numerical values associated with this assay represent growth relative to the no-drug control and the numbers of cells at time 0 (FIG. 7). This allows detection of both growth inhibition (values between 0 and 100) and lethality (values less than 0). For example, a value of 100 signifies no growth inhibition, 40 means 60% growth inhibition, 0 means no net growth over the course of the experiment, −40 means 40% lethality, and −100 indicates all cells are dead. […] Growth inhibitions reflect cytostatic activity of the compound as previously shown for Complex 2. In contrast, cell lethality is only evident in melanoma cells, specifically the LOX IMVI and SK-MEL-28 cell lines.

MALME-3M = test: NCI60 anticancer drug screen; type: cell-based, human; settings: MALME-3M (Melanoma), 10 μM, 48 h
Excerpt: as §1, §2, §3

UO-31 = test: NCI60 anticancer drug screen; type: cell-based, human; settings: UO-31 (Renal Cancer), 10 μM, 48 h
Excerpt: as §1, §2, §3

OVCAR-8 = test: NCI60 anticancer drug screen; type: cell-based, human; settings: OVCAR-8 (Ovarian Cancer), 10 μM, 48 h
Excerpt: as §1, §2, §3

HL-60 (TB) = test: NCI60 anticancer drug screen; type: cell-based, human; settings: HL-60 (TB) (Leukemia), 10 μM, 48 h
Excerpt: as §1, §2, §3

OVCAR-4 = test: NCI60 anticancer drug screen; type: cell-based, human; settings: OVCAR-4 (Ovarian Cancer), 10 μM, 48 h
Excerpt: as §1, §2, §3

SF-295 = test: NCI60 anticancer drug screen; type: cell-based, human; settings: SF-295 (CNS Cancer), 10 μM, 48 h
Excerpt: as §1, §2, §3

U251 = test: NCI60 anticancer drug screen; type: cell-based, human; settings: U251 (CNS Cancer), 10 μM, 48 h
Excerpt: as §1, §2, §3

EKVX = test: NCI60 anticancer drug screen; type: cell-based, human; settings: EKVX (Non-small-cell lung cancer), 10 μM, 48 h
Excerpt: as §1, §2, §3

NCI-H226 = test: NCI60 anticancer drug screen; type: cell-based, human; settings: NCI-H226 (Non-small-cell lung cancer), 10 μM, 48 h
Excerpt: as §1, §2, §3

SK-MEL-5 = test: NCI60 anticancer drug screen; type: cell-based, human; settings: SK-MEL-5 (Melanoma), 10 μM, 48 h
Excerpt: as §1, §2, §3

HPO-92 = test: NCI60 anticancer drug screen; type: cell-based, human; settings: HPO-92 (Non-small-cell lung cancer), 10 μM, 48 h
Excerpt: as §1, §2, §3

HT29 = test: NCI60 anticancer drug screen; type: cell-based, human; settings: HT29 (Colon cancer), 10 μM, 48 h
Excerpt: as §1, §2, §3

MDA-MB-435 = test: NCI60 anticancer drug screen; type: cell-based, human; settings: MDA-MB-435 (Melanoma), 10 μM, 48 h
Excerpt: as §1, §2, §3

ACHN = test: NCI60 anticancer drug screen; type: cell-based, human; settings: ACHN (Renal Cancer), 10 μM, 48 h
Excerpt: as §1, §2, §3

[1] = tested on: DU-145, SK-MEL-28, MDA-MB-231, OVCAR-3; test: Uptake of gallium corroles (ImageXpress confocal), cell lines taken together; type: cell-based, human; settings: 30 μM, 37° C., dark
Description: The intracellular uptake of gallium corroles was quantified using the ImageXpressultra laser point-scanning confocal microscope (Molecular Devices). The fluorescence image acquisition settings were as previously reported (Lim P, et al. (2012), Chem Res Toxicol 25(2):400-409.). Cells (DU-145, SK-MEL-28, MDA-MB-231, and OVCAR-3) were seeded in 96-well dishes (8×10^3 cells per well in 0.1 mL) and allowed to attach overnight. Complex 1, 2, 3, or 4 was added directly to cell media at 30 μM final concentration or media only control, and incubated for 0.25, 1, 3, or 24 h at 37° C. in the dark under a 5% CO2 atmosphere. Cells were fixed and labeled in situ with WGA-Alexa Fluor 488 conjugate and DAPI to allow for the identification of cell boundary and nucleus, respectively. The quantification of blue (DAPI) fluorescence signals in each sample yielded the total number of cells in that population. Corresponding determination of red (corrole) fluorescence within each cell, corrected for background fluorescence from untreated cells, provided the number of cells containing corroles. For each corrole concentration at various time points, fluorescence data were obtained for 1,000-22,000 individual cells. Data acquisitions and analyses were performed as described (Lim P, et al. (2012), Chem Res Toxicol 25(2):400-409). The percentage of corrole-positive cells and the median fluorescence intensity (median RFU) for each treatment were plotted in a three-axis graph using Microsoft Office Excel 2007 (Microsoft Corporation).
To quantify the kinetics of intracellular uptake and accumulation of each derivative, ImageXpressultra, a laser point-scanning confocal microscope, was used for analyses. […] Cells were incubated at 37° C. in the dark for 0.25, 1, 3, or 24 h. […] Within 15 min, Complex 4 fluorescence was observable in ˜80% of ovarian cancer cells, 97% of breast cancer cells, and >99% of prostate cancer and melanoma cells, whereas up to 3 and 24 h were required to label >80% of cells from all four cancer lines with Complexes 3 and 2, respectively. […]

LOX IMVI = test: NCI60 anticancer drug screen; type: cell-based, human; settings: LOX IMVI (Melanoma), 10 μM, 48 h; lethality rather than inhibition

O=C(O)CCCCCNc1c(F)c(F)c(C2=C3C=CC4=[N+]3[Ga-]35[n]6c2ccc6C(c2c(F)c(F)c(F)c(F)c2F)=c2ccc([n]23)=C(c2c(F)c(F)c(F)c(F)c2F)c2ccc4[n]25)c(F)c1F (stereo not drawn) [Complex 3]
solubility in water (solubility in water): easily solubilized in water
Growth inhibition, % (CAK-1): 71.7%
Growth inhibition, % (MALME-3M): 50.4%
Growth inhibition, % (UO-31): 64.7%
Growth inhibition, % (OVCAR-8): 67.3%
Growth inhibition, % (HL-60 (TB)): 86.1%
Growth inhibition, % (OVCAR-4): 59.9%
Growth inhibition, % (SF-295): 53.2%
Growth inhibition, % (U251): 77.4%
Growth inhibition, % (EKVX): 59.7%
Growth inhibition, % (NCI-H226): 61.1%
Growth inhibition, % (SK-MEL-5): 72.0%
Growth inhibition, % (HPO-92): 81.6%
Growth inhibition, % (HT29): 60.6%
Growth inhibition, % (MDA-MB-435): 90.8%
Growth inhibition, % (ACHN): 73.2%
time required to label >80% of cells from all four cancer lines [1]: up to 3 h
% lethality (LOX IMVI): 9.7** %
